The target of data set [1] is NHP adrenal gland tissue. In words: Competition binding assay against 10 nM [^18F]CETO. Details: species or system cynomolgus monkey (non-human primate. The conditions noted are these: residual binding of 10 nM [^18F]CETO, NHP adrenal gland tissue 200 µg/mL, 60 min, room temperature. How it is done:
(§1) Normal NHP adrenal tissue was weighed and homogenized in 20 volumes of ice-cold 0.32 M sucrose and stored in aliquots at -80 °C until use. For the saturation binding study, the homogenate was further diluted to 20 µg/mL in the assay. Triplicates of each ligand concentration in the range of 0.03-30 nmol/L [^18F]CETO, with and without a competing ligand (1 µmol/L metomidate), were incubated at room temperature for 60 min. For the competition binding assay, 200 µg/mL of NHP adrenal gland tissue was used. Triplicate tubes, containing 10 nM [^18F]CETO were incubated for 60 min at room temperature with three competing ligands, MTO, FETO and CETO, at concentrations between 0 and 30 nmol/L, respectively.
(§2) The incubations were terminated by filtration under vacuum through Whatman GF/C glass fibre filters, using a cell harvester (Brandel, Gaithersburg, MD). The filters were washed four times with 3 mL PBS buffer and transferred to scintillation tubes where the trapped radioactivity was measured in an automated gamma counter (Wizard 2480, PerkinElmer Downers Grove, IL, USA).
(§3) The saturation study was repeated twice with normal NHP adrenal gland tissue and the results were used to calculate the equilibrium dissociation constant, Kd, and the total target density for the binding of [^18F]CETO, Bmax. Values for IC50, Bmax and Kd were estimated by GraphPad Prism 8.2, using non-linear regression of the binding curves.

Data set [2] deals with human adrenal tumours and normal adrenal gland. In words: Frozen section autoradiography. It counts as binding. The conditions noted are these: 0.03 nmol/L [^18F]CETO, 60 min. How it is done:
Tissues from normal human adrenal glands, liver, kidney, spleen and small intestine were used along with samples of different types of adrenal tumours, aldosterone-producing adenomas (APA), cortisol-producing adenomas (CPA), ACC, and pheochromocytoma (PCC). Normal adrenal gland tissues and spleen tissues from non-human primates (NHPs) were also utilized.
Specimens for autoradiography were prepared from snap-frozen tissue, stored at -70 °C, and divided by a cryotome into 20 μm thick slices. The slices were placed on Superfrost^TM glass slides and stored at -20 °C until the autoradiographic examination. Slides were pre-incubated at room temperature for 20 min in a PBS buffer. Duplicate slides were incubated in 0.03 nmol/L [^18F]CETO for 60 min, in the presence or absence of an excess of metomidate (0.45 µmol/L) to block the specific binding of [^18F]CETO. After incubation, slides were washed for 3 × 3 min in cold PBS buffer, followed by rapid immersion in water. Slides were then dried for 10 min at 37 °C and exposed to Super Resolution Storage Phosphor Screens (PerkinElmer, Downers Grove, IL, USA) for >240 min and scanned in a Cyclone Plus Phosphor Imager (PerkinElmer, Model C431200, Downers Grove, IL, USA).

Data set [3] is described as follows: Ex-vivo organ distribution in rats. Details: species or system Sprague Dawley rats. How it is done: A biodistribution study for [^18F]CETO was performed in thirty Sprague Dawley rats. A dose of 5.4±0.9 MBq [^18F]CETO was injected as a bolus in the lateral tail vein, to un-sedated rats. Three rats of each gender were then euthanized by high concentrations of CO2, at five predetermined time points; 10, 30, 60, 120 and 240 min post injection (p.i.), respectively, and their organs were harvested and weighed. Radioactivity content in the organs was measured in a well-type NaI(Tl) scintillation counter, applying correction for dead-time and for decay. The organ radioactivity readings were decay-corrected to the time of injection, and results were expressed as standardized uptake values (SUV).

The nature of data set [4]: PET/CT in non-human primate with kinetic modelling. It counts as in vivo, Macaca fascicularis. The conditions noted are these: for time of peak uptake in the adrenal glands: SUVmean time-activity curves. As to the method:
One female NHP, Macaca fascicularis, was obtained from the Astrid Fagræus Laboratory, Karolinska Institute, Comparative Medicine. The NHP was used to compare the [^18F]CETO and [^11C]MTO biodistribution and their uptake over time in adrenal and liver.
Ketamine (~10 mg/kg) was used as a sedative. Whilst being transported to the PET centre at Uppsala University Hospital, the NPH was weighed and maintained on iterated ketamine injections (15 mg/kg/h). Saturation levels were continuously measured through pulse oximetry, and oxygen administered as needed.
At the PET centre, the NPH was intubated under propofol-induced anaesthesia. General anaesthesia was maintained by sevoflurane inhalation (1.5 - 5.0%) and artificial ventilation. Two venous catheters were placed - one for blood sampling and one for tracer administration. Body temperature, heart rate, ECG, pCO2, pO2, SaO2 and blood pressure levels were monitored throughout the PET study. A General Electric Discovery MI PET/CT scanner (GE Healthcare, Milwaukee, USA) was used.
PET/CT positioning was determined by using a scout CT scan, and 6.5 MBq/kg of [^11C]MTO was administered I.V. through the catheter. A baseline dynamic 90 min PET scan over the abdomen was started. After a sufficient waiting period, to allow for the radioactive decay of carbon-11, 4.2 MBq/kg of [^18F]CETO was injected I.V. A 90 min baseline dynamic PET scan was started and was followed by a 15 min whole-body PET examination. Thereafter, a blockage study was performed by administering 0.5 mg/kg etomidate I.V. for 20 min. At the end of etomidate administration, corresponding to approximately 150 min after the baseline [^18F]CETO injection, 19.3 MB/kg of [^18F]CETO was administered I.V., followed by a 90 min dynamic PET scan. The amount of radioactivity used in the blocking study was nearly fivefold that used during the baseline PET examination, in order to render any remaining activity from the baseline scan negligible. During both [^18F]CETO PET scans, discrete venous blood samples (~2 mL) were collected in heparinized tubes at 5, 10, 20, 40 and 80 min p.i. (3 mL at the last time point) of [^18F]CETO to measure radioactivity in whole blood and in plasma and for metabolite analysis. PET images were reconstructed using an ordered-subsets maximisation (OSEM) algorithm including time-of-flight information and resolution recovery. Dynamic images were reconstructed into time frames with increasing durations.
In the PET images, volumes of interest (VOIs) were drawn over representative subsets of aorta, adrenals, kidneys, liver, lungs, pancreas and spleen and transferred to all dynamic time frames to obtain time-activity curves (TACs), showing SUV as a function of time, after normalization to injected activity per body weight. Plasma TACs were determined by multiplying the aorta TAC with the mean plasma-to-whole blood ratio of the five analysed blood samples. Then, a metabolite-corrected input curve, representing intact tracer in plasma, was calculated by multiplying the plasma TAC with a sigmoid fit to the measured parent fraction data.
Adrenal time-activity curves were fitted using single-tissue as well as irreversible and reversible two-tissue compartment models. The optimal model to describe the data was determined using the Akaike information criterion. In addition, data were analysed using the Patlak and Logan graphical analysis methods, assuming irreversible and reversible kinetics, respectively. Additionally, whole-body net uptake rate parametric images were calculated using the Patlak method.

The nature of data set [5]: Radio metabolite analysis of [^18F]CETO in NHP plasma. It counts as in vivo, Macaca fascicularis. The conditions noted are these: for intact [^18F]CETO: NHP venous plasma.
Data set [6] in a line: PET-MRI in rats with and without metomidate blocking. It counts as in vivo, Sprague Dawley rats. From the text: Sevoflurane inhalation was used for the induction and maintenance of anaesthesia, and an intravenous catheter was placed in the lateral tail vein. After the investigations, the mice/rats were euthanized and their organs harvested and weighed, followed by measurement of radioactivity (as previously described). PET and MRI images were acquired on a Nanoscan PET-3TMRI scanner (Mediso Mediso, Medical Imaging Systems, Budapest, Hungary).
Two male Sprague Dawley rats were positioned on the heated bed of the scanner and a dynamic PET acquisition of the abdomen was initiated immediately before injection of 4-5 MBq of [^18F]CETO. Metomidate (1 µmol/kg) was co-injected in one of the rats as a blocker. The dynamic PET scan was continued for 60 min and was followed by a whole-body static scan, 3 beds, 5 min per bed position ~90 min post injection, and by MRI of the abdomen.
PET acquisition was initiated and 4.0-4.8 MBq of […] was intravenously administered. One of the rats was given metomidate (1 µmol/kg) I.V., for a blockage study. An initial dynamic PET scan of the abdomen was performed for 60 min, followed by a baseline whole body PET scan for 15 min.

Data set [7] relates to normal NHP adrenal tissue. In words: In vitro association/dissociation kinetics (LigandTracer). Details: species or system cynomolgus monkey (non-human primate. To be noted: 1:1 kinetic binding model, NHP adrenal homogenate. How it is done:
To determine the in vitro kinetics for association and dissociation of [^18F]CETO to normal NHP adrenal tissue, 20 µL of homogenate, corresponding to 40 µg of adrenal, was pipetted to a Poly-D-lysine coated cell dish (CELLCOAT™, Greiner Bio-One GmbH, Austria) and allowed to dry for 15 min. Subsequently, the dishes were placed in the inclined rotating holder of a LigandTracer™ yellow instrument (Ridgeview Instruments AB, Uppsala, Sweden) and [^18F]CETO was added with concentrations ranging from 1 to 5 nM to measure the association rate. A higher concentration was added when the previous concentration had reached equilibrium. To measure the dissociation rate, the radioactive solution was replaced with buffer after the highest concentration reached equilibrium. Data were analyzed with TraceDrawer software (Ridgeview Instruments AB, Uppsala, Sweden) and the association rate constant (kon), dissociation rate constant (koff) and equilibrium dissociation constant (KD) were computed using a 1:1 kinetic binding model.

Data set [8] is described as follows: Observation of adverse effects after tracer injection, NHP. It counts as in vivo, Macaca fascicularis. The conditions noted are these: recovery post-anaesthesia. From the text:
After the imaging sessions, the NHP was wakened and de-intubated and, once stable, transported back to its living facility.

The test system of data set [9] is CYP11B1 and CYP11B2 in NHP adrenal gland homogenate. In words: Saturation binding of [^18F]CETO in adrenal gland homogenate. Details: species or system cynomolgus monkey (non-human primate. To be noted: saturation study. How it is done:
as §1, §2, §3

Data set [10] is described as follows: Observation of adverse effects after tracer injection, rats. The conditions noted are these: rats following [^18F]CETO injection.

These results are taken from article PMC8040415, “Para-chloro-2-[^18F]fluoroethyl-etomidate: A promising new PET radiotracer for adrenocortical imaging” (International Journal of Medical Sciences, 2021).

Where “and” joins values, the source holds several entries; their conditions need not be identical. Equal entries are not always repeated. Entries after “also recorded” stand apart in the source; their conditions may differ.

`C[C@H](c1ccc(Cl)cc1)n1cncc1C(=O)OCCF` [CETO]: in data set [1], the IC50 was determined as 5 nM.
As for `C[C@H](c1ccc(Cl)cc1)n1cncc1C(=O)OCC[18F]` [[^18F]CETO, para-chloro-2-[^18F]fluoroethyl-etomidate], the “uptake in APAs compared to that of the normal adrenal gland” value in data set [2] was “approximately threefold”. Moreover, the results for the “time of peak uptake in the adrenal glands” value in data set [3] (ex-vivo biodistribution) and in data set [4] (NHP) were 2 hr p.i and > 85 min p.i, respectively. For the same compound, the “uptake in all other organs and tissues (SUV)” value in data set [3] (other than adrenal glands and early lungs and pancreas, bone and urinary bladder are exceptions) was ~1 SUV. In data set [4] (NHP, 85 min p.i.), the highest adrenal-to-liver ratio is reported as > 5. Also, in [4] (NHP, after etomidate 0.5 mg/kg, irreversible two-tissue compartment model), the “rate constant k3 in the adrenal glands after blocking” value is “reduced to zero”. For the same compound, the route of elimination result in data set [4] (NHPs) and in data set [6] was “mainly renal” each time. The entries for the “intact [^18F]CETO” value in [5] (5 min p.i.) and in [5] (80 min p.i.) were 56% and 11%, respectively. In addition, in data set [5] (NHP, final observation time point 90 min p.i.), the “[^18F]CETO share of radioactivity in plasma” value is listed as “approximately 10%”. Moreover, the half-life in data set [5] (female, cynomolgus monkey, plasma, intravenous, NHP, bi-phasic metabolism, read-out: plasma half-life, fast first phase) was ~10 min. The “time of peak adrenal uptake” value in data set [6] is given as 120 min p.i. For the same compound, the koff in [7] turned out to be 0.00035 s⁻¹. For the same compound, the equilibrium dissociation constant (Kd) in data set [7] (read-out: Kd value derived from the rate constants) was 0.59 nM; in data set [9] (room temperature, 60 min, read-out: equilibrium dissociation constant, Kd), 0.66 nM and 0.66 to 0.67 nM and 0.67 nM. For the same compound, the adverse effects entry in [8] was “no adverse effects”; in [10], “No adverse effects”. In addition, the Bmax in [9] was 0.0082 to 0.0097 nmol/mg; in [9] (separate experiments A and B), 0.0097 nmol/mg and 0.0082 nmol/mg.
On to `C[C@H](c1ccccc1)n1cncc1C(=O)OCCF` [FETO], for which, in data set [1], the concentration for half-maximal inhibition (IC50) was found to be 3 nM.
On to `C[C@H](c1ccccc1)n1cncc1C(=O)O[11CH3]` [[^11C]MTO, [^11C]Metomidate, reference compound], for which the highest adrenal-to-liver ratio in data set [4] (NHP, 40 minutes p.i.) was 1.5. The “time of peak uptake in the adrenal glands” value in data set [4] (NHP) is reported as “approximately 40 min p.i”.
As to `COC(=O)c1cncn1C(C)c1ccccc1` (centres unmarked) [MTO, metomidate], the IC50 in data set [1] stood at 2 nM.
As for `C[C@H](c1ccccc1)n1cncc1C(=O)OCC[18F]` [[^18F]FETO, 2-[^18F]fluoroethyl-etomidate], the “blocking of adrenal uptake with metomidate” value in [6] (metomidate 1 µmol/kg) is “unable to block; also recorded: not possible to block”.
